From PMC4774911, “Biochemical Screening of Five Protein Kinases from Plasmodium falciparum against 14,000 Cell-Active Compounds” (PLoS ONE, 2016)
“And” between values parts separate entries of the source, which are not always exact repeats. Equal entries are not always repeated.

Experiments:
Assay in all cases: biochemical
Set-up in all cases: endogenous in cells; host or cells: K562 cell extract; species or system K562 (extract); replicate k of n = 2 (each experiment ID is one independent experiment; two experiment IDs per compound)
Conditions in all cases: read-out: KDapp
STK39 = STK39 (Homo sapiens, UniProt Q9UEW8)
CDK7 = CDK7 (Homo sapiens, UniProt P50613)
DYRK1A = DYRK1A (Homo sapiens, UniProt Q13627)
MAP4K4 = MAP4K4 (Homo sapiens, UniProt O95819)
CDK9 = CDK9 (Homo sapiens, UniProt P50750)
CSNK2A1 = CSNK2A1 (Homo sapiens, UniProt P68400)
PRKCQ = PRKCQ (Homo sapiens, UniProt Q04759)
MAP2K2 = MAP2K2 (Homo sapiens, UniProt P36507)
LATS1 = target: T1, LATS1 (Homo sapiens, UniProt O95835)
T1 sequence (O95835 1-1130): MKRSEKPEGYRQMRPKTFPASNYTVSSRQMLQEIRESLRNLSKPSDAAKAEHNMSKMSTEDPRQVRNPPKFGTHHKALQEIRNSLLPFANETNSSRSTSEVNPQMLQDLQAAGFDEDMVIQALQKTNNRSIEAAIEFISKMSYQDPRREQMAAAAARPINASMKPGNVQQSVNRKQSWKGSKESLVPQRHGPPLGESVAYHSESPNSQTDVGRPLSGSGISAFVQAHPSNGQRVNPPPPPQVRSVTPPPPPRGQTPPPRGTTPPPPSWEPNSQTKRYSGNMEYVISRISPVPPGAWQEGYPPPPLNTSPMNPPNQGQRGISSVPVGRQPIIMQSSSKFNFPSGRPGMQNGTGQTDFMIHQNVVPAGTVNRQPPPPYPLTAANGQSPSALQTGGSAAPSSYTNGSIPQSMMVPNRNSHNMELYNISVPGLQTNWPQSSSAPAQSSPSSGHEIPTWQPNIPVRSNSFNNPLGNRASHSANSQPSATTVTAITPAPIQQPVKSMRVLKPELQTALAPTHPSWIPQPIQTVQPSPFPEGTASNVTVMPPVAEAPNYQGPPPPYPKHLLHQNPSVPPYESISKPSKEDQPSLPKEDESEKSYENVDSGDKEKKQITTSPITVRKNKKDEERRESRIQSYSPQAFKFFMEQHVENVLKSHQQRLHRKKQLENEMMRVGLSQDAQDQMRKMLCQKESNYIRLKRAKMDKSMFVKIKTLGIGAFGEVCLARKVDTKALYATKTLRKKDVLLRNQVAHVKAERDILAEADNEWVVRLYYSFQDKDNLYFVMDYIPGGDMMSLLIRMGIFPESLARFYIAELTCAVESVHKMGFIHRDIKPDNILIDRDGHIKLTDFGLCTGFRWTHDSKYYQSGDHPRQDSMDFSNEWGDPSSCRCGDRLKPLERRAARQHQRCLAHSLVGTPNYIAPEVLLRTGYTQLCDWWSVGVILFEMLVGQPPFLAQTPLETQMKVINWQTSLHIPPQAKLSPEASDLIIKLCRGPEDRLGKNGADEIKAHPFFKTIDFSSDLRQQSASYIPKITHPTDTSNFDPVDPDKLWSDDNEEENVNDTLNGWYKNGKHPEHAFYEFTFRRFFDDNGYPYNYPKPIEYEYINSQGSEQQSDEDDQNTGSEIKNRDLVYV

MELK = MELK (Homo sapiens, UniProt Q14680)
LYN = LYN (Homo sapiens, UniProt P07948)
FYN = FYN (Homo sapiens, UniProt P06241)
FYN, sequence (P06241 whole entry): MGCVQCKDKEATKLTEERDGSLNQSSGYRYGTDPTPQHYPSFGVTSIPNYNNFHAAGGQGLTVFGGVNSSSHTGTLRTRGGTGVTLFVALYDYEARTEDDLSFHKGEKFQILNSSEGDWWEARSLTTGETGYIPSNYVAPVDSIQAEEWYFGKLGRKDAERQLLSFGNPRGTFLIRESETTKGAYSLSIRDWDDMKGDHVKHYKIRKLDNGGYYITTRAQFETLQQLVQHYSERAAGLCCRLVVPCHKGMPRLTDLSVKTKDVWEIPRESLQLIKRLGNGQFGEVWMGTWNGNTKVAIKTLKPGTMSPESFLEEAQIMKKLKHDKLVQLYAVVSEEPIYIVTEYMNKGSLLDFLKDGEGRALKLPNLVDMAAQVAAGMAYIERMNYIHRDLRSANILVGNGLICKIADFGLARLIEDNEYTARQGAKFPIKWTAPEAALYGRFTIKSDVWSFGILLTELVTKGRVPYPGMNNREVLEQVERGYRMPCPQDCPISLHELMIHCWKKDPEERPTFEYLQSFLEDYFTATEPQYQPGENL

MAP4K4, sequence (O95819 whole entry): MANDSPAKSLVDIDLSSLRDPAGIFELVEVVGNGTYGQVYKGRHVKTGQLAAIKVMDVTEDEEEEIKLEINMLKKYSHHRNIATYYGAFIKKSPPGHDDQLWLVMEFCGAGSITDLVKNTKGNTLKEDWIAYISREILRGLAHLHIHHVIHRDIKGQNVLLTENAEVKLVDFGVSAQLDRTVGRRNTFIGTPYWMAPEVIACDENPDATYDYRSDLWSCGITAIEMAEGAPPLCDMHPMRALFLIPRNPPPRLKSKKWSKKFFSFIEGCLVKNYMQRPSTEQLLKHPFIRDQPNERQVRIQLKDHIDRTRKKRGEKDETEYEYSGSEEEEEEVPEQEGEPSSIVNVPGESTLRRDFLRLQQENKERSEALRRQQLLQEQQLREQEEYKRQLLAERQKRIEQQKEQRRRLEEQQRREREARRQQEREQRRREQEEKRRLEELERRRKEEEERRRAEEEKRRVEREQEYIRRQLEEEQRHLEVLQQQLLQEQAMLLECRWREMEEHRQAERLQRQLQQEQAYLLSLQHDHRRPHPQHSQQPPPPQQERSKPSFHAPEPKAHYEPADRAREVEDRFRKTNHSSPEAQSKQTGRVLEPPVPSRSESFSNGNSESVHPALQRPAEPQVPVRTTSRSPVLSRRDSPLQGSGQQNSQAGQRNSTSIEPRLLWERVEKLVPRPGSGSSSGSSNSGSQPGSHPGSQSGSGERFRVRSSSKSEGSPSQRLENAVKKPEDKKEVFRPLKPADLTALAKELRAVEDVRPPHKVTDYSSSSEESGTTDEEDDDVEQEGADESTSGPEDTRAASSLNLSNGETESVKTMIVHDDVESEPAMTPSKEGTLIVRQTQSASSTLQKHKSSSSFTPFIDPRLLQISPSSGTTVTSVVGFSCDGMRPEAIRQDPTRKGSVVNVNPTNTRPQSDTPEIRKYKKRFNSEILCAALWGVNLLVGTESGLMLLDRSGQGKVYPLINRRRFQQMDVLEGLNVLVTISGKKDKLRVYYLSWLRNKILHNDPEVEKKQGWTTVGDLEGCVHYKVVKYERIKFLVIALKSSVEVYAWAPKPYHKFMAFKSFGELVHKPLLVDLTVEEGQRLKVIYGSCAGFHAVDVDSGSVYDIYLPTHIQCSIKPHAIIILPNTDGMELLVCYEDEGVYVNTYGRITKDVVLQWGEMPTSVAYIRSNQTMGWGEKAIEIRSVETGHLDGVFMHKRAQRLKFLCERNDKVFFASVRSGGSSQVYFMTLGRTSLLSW
PRKCQ, sequence (Q04759 whole entry): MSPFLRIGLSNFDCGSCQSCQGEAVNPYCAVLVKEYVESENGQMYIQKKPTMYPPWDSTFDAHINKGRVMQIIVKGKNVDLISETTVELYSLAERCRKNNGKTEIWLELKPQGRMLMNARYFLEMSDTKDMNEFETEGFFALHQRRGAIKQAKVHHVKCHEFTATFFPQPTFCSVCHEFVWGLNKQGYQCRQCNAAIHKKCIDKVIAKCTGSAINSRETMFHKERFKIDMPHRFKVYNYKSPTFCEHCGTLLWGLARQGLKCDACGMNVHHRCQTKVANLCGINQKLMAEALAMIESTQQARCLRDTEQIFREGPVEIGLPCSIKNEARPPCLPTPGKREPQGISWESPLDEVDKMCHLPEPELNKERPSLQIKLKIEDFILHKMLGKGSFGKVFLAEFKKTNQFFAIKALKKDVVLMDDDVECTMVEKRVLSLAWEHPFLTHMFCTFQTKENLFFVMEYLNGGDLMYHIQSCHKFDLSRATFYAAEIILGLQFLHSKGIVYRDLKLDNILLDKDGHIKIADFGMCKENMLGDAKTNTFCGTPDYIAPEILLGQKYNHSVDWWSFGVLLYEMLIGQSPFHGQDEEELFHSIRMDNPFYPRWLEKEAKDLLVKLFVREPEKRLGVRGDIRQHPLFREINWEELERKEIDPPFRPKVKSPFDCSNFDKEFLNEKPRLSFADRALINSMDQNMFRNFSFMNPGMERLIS
MELK, sequence (Q14680 whole entry): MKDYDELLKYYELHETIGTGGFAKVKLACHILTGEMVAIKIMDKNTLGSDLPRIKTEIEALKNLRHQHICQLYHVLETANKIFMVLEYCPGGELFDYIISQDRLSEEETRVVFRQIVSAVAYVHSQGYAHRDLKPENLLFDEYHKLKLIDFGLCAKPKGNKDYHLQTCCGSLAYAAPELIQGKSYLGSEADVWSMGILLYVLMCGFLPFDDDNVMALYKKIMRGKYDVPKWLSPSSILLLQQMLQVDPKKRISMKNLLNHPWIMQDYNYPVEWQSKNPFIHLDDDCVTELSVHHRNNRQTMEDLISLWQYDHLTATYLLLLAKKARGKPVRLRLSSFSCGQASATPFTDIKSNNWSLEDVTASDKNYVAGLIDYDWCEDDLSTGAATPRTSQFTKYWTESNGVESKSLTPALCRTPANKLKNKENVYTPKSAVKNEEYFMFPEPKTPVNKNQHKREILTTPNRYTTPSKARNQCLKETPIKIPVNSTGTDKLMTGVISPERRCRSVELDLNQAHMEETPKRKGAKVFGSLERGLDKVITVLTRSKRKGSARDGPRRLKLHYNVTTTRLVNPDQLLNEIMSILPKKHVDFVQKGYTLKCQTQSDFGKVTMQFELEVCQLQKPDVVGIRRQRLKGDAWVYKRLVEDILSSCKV
CDK9, sequence (P50750 whole entry): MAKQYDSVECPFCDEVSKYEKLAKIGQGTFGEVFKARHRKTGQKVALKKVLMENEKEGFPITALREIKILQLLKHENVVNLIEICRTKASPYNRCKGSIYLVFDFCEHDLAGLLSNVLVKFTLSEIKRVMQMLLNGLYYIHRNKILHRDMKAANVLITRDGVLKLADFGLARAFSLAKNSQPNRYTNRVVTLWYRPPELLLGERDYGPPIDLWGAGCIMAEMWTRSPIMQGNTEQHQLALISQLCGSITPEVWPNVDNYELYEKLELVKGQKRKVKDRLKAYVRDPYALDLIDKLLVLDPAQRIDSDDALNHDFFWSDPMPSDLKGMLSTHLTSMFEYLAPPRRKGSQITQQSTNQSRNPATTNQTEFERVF
CDK7, sequence (P50613 whole entry): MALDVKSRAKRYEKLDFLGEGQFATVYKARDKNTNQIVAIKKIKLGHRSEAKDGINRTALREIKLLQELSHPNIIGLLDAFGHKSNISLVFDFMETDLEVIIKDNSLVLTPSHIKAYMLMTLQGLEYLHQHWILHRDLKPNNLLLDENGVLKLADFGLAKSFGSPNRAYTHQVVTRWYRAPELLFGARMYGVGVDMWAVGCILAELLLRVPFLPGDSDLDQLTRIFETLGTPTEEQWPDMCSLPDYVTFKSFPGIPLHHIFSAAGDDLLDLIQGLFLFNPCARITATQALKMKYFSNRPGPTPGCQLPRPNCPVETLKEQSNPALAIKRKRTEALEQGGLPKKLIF
LYN, sequence (P07948 whole entry): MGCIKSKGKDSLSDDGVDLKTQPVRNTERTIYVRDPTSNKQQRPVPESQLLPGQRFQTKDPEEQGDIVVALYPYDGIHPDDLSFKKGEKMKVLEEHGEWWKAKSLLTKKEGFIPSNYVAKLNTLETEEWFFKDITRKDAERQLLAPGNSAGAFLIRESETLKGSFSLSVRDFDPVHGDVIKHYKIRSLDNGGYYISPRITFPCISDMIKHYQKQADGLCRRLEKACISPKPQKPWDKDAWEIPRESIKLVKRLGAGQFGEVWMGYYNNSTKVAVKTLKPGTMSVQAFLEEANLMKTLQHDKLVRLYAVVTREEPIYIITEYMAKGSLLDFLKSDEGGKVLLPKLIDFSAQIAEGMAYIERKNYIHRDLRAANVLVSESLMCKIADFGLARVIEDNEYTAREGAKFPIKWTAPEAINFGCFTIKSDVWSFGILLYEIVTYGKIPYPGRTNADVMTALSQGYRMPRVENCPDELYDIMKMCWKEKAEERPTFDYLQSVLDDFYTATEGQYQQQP
MAP2K2, sequence (P36507 whole entry): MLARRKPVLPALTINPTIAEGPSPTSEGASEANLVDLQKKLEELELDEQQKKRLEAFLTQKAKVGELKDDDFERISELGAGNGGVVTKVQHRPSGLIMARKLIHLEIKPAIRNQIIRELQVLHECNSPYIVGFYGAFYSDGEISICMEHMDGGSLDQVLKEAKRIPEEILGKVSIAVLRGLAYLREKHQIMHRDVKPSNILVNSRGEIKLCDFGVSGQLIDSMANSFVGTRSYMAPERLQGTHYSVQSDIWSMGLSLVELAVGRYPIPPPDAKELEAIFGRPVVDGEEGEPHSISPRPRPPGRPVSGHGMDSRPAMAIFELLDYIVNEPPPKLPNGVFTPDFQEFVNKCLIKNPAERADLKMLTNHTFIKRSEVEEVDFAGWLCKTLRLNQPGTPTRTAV

CN(C)CC(O)COc1ccc(Nc2ncc([N+](=O)[O-])c(Nc3ccccc3O)n2)cc1.O=C(O)C(F)(F)F (stereo not drawn) [TCMDC-141399]
Kd (STK39): 4760 nM | Kd (CDK7): 1430 nM and 4620 nM | Kd (DYRK1A): 2860 nM | Kd (MAP4K4): 1020 nM and 680 nM | Kd (CDK9): 2780 nM and 3820 nM | Kd (CSNK2A1): 63.5 nM

Cl.NCC1(c2nc(-c3ccc(Cl)c(O)c3)c(-c3ccncc3)[nH]2)CCCCC1 [TCMDC-141154]
Kd (PRKCQ): 786 nM and 1000 nM | Kd (MAP4K4): 850 nM and 539 nM | Kd (MAP2K2): 7880 nM | Kd (LATS1): 911 nM | Kd (MELK): 1680 nM and 1610 nM | Kd (LYN): 621 nM | Kd (FYN): 67.6 nM and 60.5 nM

CN1CCN(c2ccc(Nc3ncc(C#N)c(Nc4ccccc4C(N)=O)n3)cc2)CC1.Cl [TCMDC-134116]
Kd (STK39): 58 nM | Kd (CDK7): 422 nM and 494 nM | Kd (DYRK1A): 286 nM and 263 nM | Kd (PRKCQ): 858 nM and 650 nM | Kd (MAP2K2): 727 nM and 858 nM | Kd (LATS1): 174 nM | Kd (CDK9): 576 nM and 393 nM | Kd (MELK): 129 nM and 125 nM | Kd (CSNK2A1): 23.5 nM | Kd (LYN): 134 nM and 167 nM | Kd (FYN): 107 nM and 85.4 nM
